The source of these data is paper PMC9969401, “Discovery of 2-(3-Benzamidopropanamido)thiazole-5-carboxylate Inhibitors of the Kinesin HSET (KIFC1) and the Development of Cellular Target Engagement Probes” (Journal of Medicinal Chemistry, 2023).

One data set concerns DLD1 HSET KO cells. The data set is described as follows: Click probe localization imaging in DLD1 HSET KO cells (negative control). Type of data set: cell-based, human. To be noted: DLD1 HSET KO, Tz-Cy5 800nM. How it is done: The Cy-5 tetrazine dye selected for this experiment is not cell-permeable, thus fixation and permeabilization of cells were necessary prior to its addition. Experiments were conducted in DLD1 4N cells and, as a negative control, isogenic 2N DLD1 HSET KO cells in which HSET expression was prevented by the disruption of the HSET gene using CRISPR. Cells were treated first with proTAME for 2 h to accumulate mitotic events, followed by treatment with the TCO probe 40 for 45 min. The live cells were then fixed and permeabilized before treatment with the tetrazine-Cy5 dye and incubation to allow the IEDDA reaction to occur. Additionally, the cells were stained for the endogenous HSET protein using indirect immunofluorescence and imaged to observe the fluorescence from both the TCO probe and antibody-labeled HSET. […] A 3 μM concentration of the probe 40 gave an acceptable signal-to-noise ratio of around 2:1. Even under these optimal conditions, some residual uniform cytoplasmic Cy5 signal was observed within the cells. However, a clear Cy5 decoration of the mitotic spindle was seen, which overlapped with the signal from the antibody-probed endogenous HSET protein (Figures 2A and S6). […] We observed a 14–17-fold increase in signal in DLD1 4N cells treated with 40 relative to tetrazine-Cy5 alone. […] Comparing the intensity of click probe labeling coincident with the mitotic spindle in DLD1 4N cells to that in DLD1 HSET KO cells after both were treated with 40, we observed a twofold higher signal in the former.
Direct target engagement of active inhibitor 36 was measured by calculating its capacity to displace the TCO-containing probe 40. 4N DLD1 cells and DLD1 HSET KO cells (negative control) were plated in 96-well ibidi μ-Clear plates (IB-89626, ibidi). Cells were first treated for 2 h with 8 μM pro-TAME (I-440–01M, R&D system) to accumulate mitotic cells and were then treated with 8 μM MG-132 (S2619, SelleckChem) and 3 μM 40, alone or together with active inhibitor 36 in DMEM media with 1% FBS for 45 min. Cells were then washed three times in DMEM, with the second wash being incubated for 10 min to ensure the optimal reduction of unspecific compound binding. After an additional PBS wash, cells were then fixed in 4% PFA/PBS (15670799, Thermo Scientific) prior to incubation with 400 nM tetraszine-Cy5 (CLK-015-05, Jena Biosciences) in 1.5% FBS/PBS for 10 min at room temperature. Cells were permeabilized by the addition of 0.5% TritonX-100/PBS for 5 min before being stained overnight for Pericentrin (1:1500 ab28144 mouse anti-PCNT, Abcam) and KIFC1 (1:1500 12313S rabbit anti-KIFC1, Cell Signaling Technologies). Secondary antibodies Alexa Fluor 488 donkey antirabbit and Alexa Fluor 555 donkey antimouse (1:1500, A21206 and A31570, respectively, Life Technologies) were added together with 1 μg/mL DAPI (D9542, Sigma) in 1.5% FBS in PBS.
Plates were imaged at 40× using a Zeiss LSM980 confocal microscope with Airyscan 2. The subsequent analysis and quantification were performed using 3D image segmentation with the Arivis4D software. Mitotic cells were segmented by selecting for the highest density (integrated DAPI intensity/total volume), and the mitotic pole areas were segmented using the Pericentrin signal. The signal of the click probe (Cy5) and total KIFC1 (FITC) was measured on the mitotic pole area, and both were normalized to the control condition containing 40 probe alone. The ratio of probe per target (click probe pole integrated intensity signal/KIFC1 pole integrated intensity signal) was used to calculate the occupancy of the probe in the target protein and normalized to the control condition containing 40 probe alone (n > 100 for each replicate, two replicates per concentration point).

Another data set has as its system DLD1 cells (4NCA and 4N). In kind it is cell-based. As to conditions: human. How it is done: Inhibition of HSET-mediated clustering was measured using a phenotypic assay measuring the formation of multipolar metaphase spindles in DLD1 cells with (4NCA) or without (4N) centrosome amplification. 4NCA cells were generated by treating 2N DLD1 cells with 2 μΜ DCB for 24 h, washed, and released in growth media for 24 h. 4N and 4NCA DLD1 cells were plated in 96-well ibidi μ-Clear plates (IB-89626, ibidi) with a no. 1.5 polymer coverslip bottom with optimal imaging properties. To enrich the mitotic population, cells were first treated for 3.5 h with 8 μM pro-TAME (I-440-01M, R&D system), an inhibitor of APC/C that transiently arrests cells in metaphase without affecting the structure of the spindle. Following the initial arrest, cells were treated with HSET compounds in the presence of 8 μM MG-132 (S2619, SelleckChem), a proteasome inhibitor that helps to maintain the metaphase arrest, where the number of spindle poles/cell can be optimally quantified by an automated segmentation analysis.
Cells were then fixed in methanol and stained for 3 h for mitotic pole marker aurora A (1:1000 610939 mouse anti-IAK1, BD Biosciences) and phosphorylated histone H3 (1:1500 ab47297 anti-histone H3 pS10, Abcam) as a marker of mitotic cells in 1.5% FBS in PBS. Following primary antibody treatment, cells were incubated with secondary antibodies Alexa Fluor 488 goat antimouse and Alexa Fluor 555 goat antirabbit (1:1500, A11029 and A21429, respectively, Life Technologies) together with 1 μg/mL DAPI (D9542, Sigma) in 1.5% FBS in PBS. Image acquisition was performed at 10× using the GE INCELL 2200 High Content Imaging System (Cytiva) and analyzed using the InCell Investigator software. Mitotic cells were identified by high pHH3 staining and were scored as multipolar if they had more than two mitotic spindle poles. The percentage of multipolar mitoses was calculated by dividing the number of multipolar mitoses by the total of all visible mitoses in one well of a 96-well plate (n > 100 for each replicate, two replicates per concentration point).
3. […]

A short description of data set [1]: BALB/c mouse plasma stability assay. Type of data set: in vitro ADME. To be noted: read-out: estimated half-life in plasma.

As for `CCCOC(=O)c1sc(NC(=O)C[C@H](CCCN(C)C(=O)O[C@@H]2CC/C=C/CCC2)NC(=O)c2cccc(-c3noc(C)n3)c2)nc1C` [Compound 38, Propyl 2-((S)-6-(((((S,E)-Cyclooct-4-en-1-yl)oxy)carbonyl)(methyl)amino)-3-(3-(5-methyl-1,2,4-oxadiazol-3-yl)benzamido)hexanamido)-4-methylthiazole-5-carboxylate], the “Average Pixel intensity” value in the data set with DLD1 HSET KO cells (5μM, Panel A: 3 quick washes at room temperature) was 799; in the data set with DLD1 HSET KO cells (5μM, Panel B: 2 quick washes then 1 at 37 °C for 5 minutes) it was 752; with DLD1 HSET KO cells (5μM, Panel C: 2 quick washes then 1 at 37 °C for 10 minutes), 702; with DLD1 HSET KO cells (10μM, Panel A: 3 quick washes at room temperature) it was 1464; in the data set on DLD1 HSET KO cells (10μM, Panel B: 2 quick washes then 1 at 37 °C for 5 minutes), 1121; in the data set with DLD1 HSET KO cells (10μM, Panel C: 2 quick washes then 1 at 37 °C for 10 minutes), 803.

As for `CCCOC(=O)c1sc(NC(=O)C[C@H](CCCNC)NC(=O)c2cccc(-c3noc(C)n3)c2)nc1C` [Compound 35, Propyl (S)-4-Methyl-2-(3-(3-(5-methyl-1,2,4-oxadiazol-3-yl)benzamido)-6-(methylamino)hexanamido)thiazole-5-carboxylate], in the data set with DLD1 cells (4NCA and 4N), the “concentration at which cellular toxicity observed” value stood at 60 µM.

As to `CCCOC(=O)c1sc(NC(=O)CCNC(=O)c2cccc(-c3noc(C)n3)c2)nc1C` [Compound 32, Propyl 4-Methyl-2-(3-(3-(5-methyl-1,2,4-oxadiazol-3-yl)benzamido)propanamido)thiazole-5-carboxylate], the half-life in data set [1] is 3.58 h. Also, the “concentration at which cellular toxicity observed” value with DLD1 cells (4NCA and 4N) is above 15 µM.
